In patent US6358983B1, “Heterocyclically substituted α-hydroxycarboxylic acid derivatives, method for producing the same and their use as endothelin receptor antagonists” (Abbott Laboratories, priority 1997, dated 2002):

Key:
human ETB receptor = biological target: T1, human ETB receptor (Homo sapiens, UniProt P24530); assay: ETB receptor binding test ([125I]-ET3, CHO cell membranes); conditions: cloned human ETB receptor, 25 pM [125I]-ET3, 25° C., 30 min
T1 construct: expressed in transfected cells; host or cells: CHO cells (membrane preparation)
T1 sequence (P24530 27-442): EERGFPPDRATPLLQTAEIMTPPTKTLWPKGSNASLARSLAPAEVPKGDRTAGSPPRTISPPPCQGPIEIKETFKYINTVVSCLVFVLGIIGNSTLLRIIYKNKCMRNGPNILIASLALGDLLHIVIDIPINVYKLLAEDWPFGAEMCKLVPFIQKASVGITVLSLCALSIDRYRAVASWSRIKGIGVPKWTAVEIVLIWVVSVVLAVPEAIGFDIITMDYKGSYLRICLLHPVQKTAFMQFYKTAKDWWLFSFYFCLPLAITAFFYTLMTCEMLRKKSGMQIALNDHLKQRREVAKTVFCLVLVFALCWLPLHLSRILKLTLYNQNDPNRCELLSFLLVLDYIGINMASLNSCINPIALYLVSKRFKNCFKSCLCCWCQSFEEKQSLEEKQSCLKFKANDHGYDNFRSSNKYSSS
Description: (§1) For binding studies, cloned human ETA or ETB receptor-expressing CHO cells were employed.
(§2) The ETA or ETB receptor-expressing CHO cells were proliferated in DMEM NUT MIX F12 medium (Gibco, No. 21331-020) using 10% fetal calf serum (PAA Laboratories GmbH, Linz, No. A15-022), 1 mM glutamine (Gibco No. 25030-024), 100 U/ml of penicillin and 100 μg/ml of streptomycin (Gibco, Sigma No P-0781). After 48 hours, the cells were washed with PBS and incubated at 37° C. for 5 minutes with 0.05% trypsin-containing PBS. Neutralization with medium was then carried out and the cells were collected by centrifugation at 300×g.
(§3) For the membrane preparation, the cells were adjusted to a concentration of 10^8 cells/ml of buffer (50 mM tris·HCL buffer, pH 7.4) and then disintegrated by means of ultrasound Branson Sonifier 250, 40-70 seconds/constant/output [sic] 20).
(§4) For the ETA and ETB receptor binding test, the membranes were suspended in incubation buffer (50 mM tris HCl, pH 7.4 with 5 mM MnCl2, […] of bacitracin and 0.2% BSA) in a concentration of 50 μg of protein per test batch and incubated at 25° C. with 25 pM [125I]-ET1 (ETA receptor test) or 25 pM [125I]-ET3 (ETB receptor test) in the presence or absence of test substance. The nonspecific binding was determined with 10^−7 M ET1. After 30 min, the free and the bound -radioligand were separated by filtration through GF/B glass fiber filters (Whatman, England) on a Skatron cell collector (Skatron, Lier, Norway) and the filters were washed with ice-cold tris HCl buffer, pH 7.4 with 0.2% BSA.
(§5) The radioactivity collected on the filters was quantified using a Packard 2200 CA liquid scintillation counter.
(§6) According to the binding test described above, receptor binding data were measured for the compounds shown below.

human ETA receptor = biological target: T2, human ETA receptor (Homo sapiens, UniProt P25101); assay: ETA receptor binding test ([125I]-ET1, CHO cell membranes); conditions: cloned human ETA receptor, 25 pM [125I]-ET1, 25° C., 30 min
T2 construct: expressed in transfected cells; host or cells: CHO cells (membrane preparation)
T2 sequence (P25101 21-427): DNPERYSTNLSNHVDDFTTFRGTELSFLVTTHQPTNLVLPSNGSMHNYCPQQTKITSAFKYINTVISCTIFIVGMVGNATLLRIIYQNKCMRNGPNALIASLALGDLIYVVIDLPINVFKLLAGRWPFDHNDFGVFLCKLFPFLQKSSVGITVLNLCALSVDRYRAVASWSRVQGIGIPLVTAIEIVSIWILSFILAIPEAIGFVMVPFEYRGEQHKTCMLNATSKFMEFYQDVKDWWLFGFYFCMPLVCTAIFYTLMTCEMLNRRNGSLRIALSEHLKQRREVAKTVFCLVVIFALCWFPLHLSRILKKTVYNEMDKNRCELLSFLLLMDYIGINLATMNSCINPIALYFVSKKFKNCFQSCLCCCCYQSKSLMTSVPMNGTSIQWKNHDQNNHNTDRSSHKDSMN
Description: as §1, §2, §3, §4, §5, §6

## COC(c1ccccc1)(c1ccccc1)[C@H](Oc1nc(C)c(C)o1)C(=O)O [Compound I-4, (S)-2-(4,5-Dimethyloxazol-2-yloxy)-3-methoxy-3,3-diphenyl-propionic Acid]
Human ETB receptor
  Ki: 3.1 µM
Human ETA receptor
  Ki: 0.029 µM

## COc1ccc(CCOC(c2ccccc2)(c2ccccc2)C(Oc2nc(C)c(C)o2)C(=O)O)cc1OC (stereo not drawn) [Compound I-15, 2-(4,5-Dimethyloxazol-2-yloxy)-3-(2-(3,4-dimethoxyphenyl)-ethoxy)-3,3-diphenylpropionic Acid]
Human ETB receptor
  Ki: 0.485 µM
Human ETA receptor
  Ki: 0.215 µM

## COC(c1ccccc1)(c1ccccc1)[C@H](Oc1nc2ccccc2s1)C(=O)O [Compound I-6, (S)-2-(Benzothiazol-2-yloxy)-3-methoxy-3,3-diphenylpropionic Acid]
Human ETB receptor
  Ki: > 7.1 µM
Human ETA receptor
  Ki: 0.9 µM

## COC(c1ccccc1)(c1ccccc1)[C@H](Oc1nc(C)c(C)s1)C(=O)O [Compound I-1, (S)-2-(4,5-Dimethylthiazol-2-yloxy)-3-methoxy-3,3-diphenyl-propionic Acid]
Human ETB receptor
  Ki: 0.65 µM
Human ETA receptor
  Ki: 0.013 µM

## COc1ccc(CCOC(c2ccccc2)(c2ccccc2)C(Oc2nc(C)c(C)s2)C(=O)O)cc1OC (stereo not drawn) [Compound I-13, 2-(4,5-Dimethylthiazol-2-yloxy)-3-(2-(3,4-dimethoxyphenyl)-ethoxy)-3,3-diphenylpropionic Acid]
Human ETB receptor
  Ki: 0.21 µM
Human ETA receptor
  Ki: 0.145 µM

## COC(c1ccccc1)(c1ccccc1)[C@H](Oc1nc2c(s1)CCC2)C(=O)O [Compound I-5, (S)-2-(4,5-Cyclopentenothiazol-2-yloxy)-3-methoxy-3,3-diphenyl-propionic Acid]
Human ETB receptor
  Ki: > 0.7 µM
Human ETA receptor
  Ki: 0.05 µM
